Patent publication US8912329B2 (priority 2009, dated 2014)

Tests used:
[1] = 250 mg oral; cited from earlier work
[2] = test system: Mycobacterium tuberculosis laboratory strain H37Rv; assay: Growth inhibition / drug susceptibility testing of M. tuberculosis with MGIT 960 system, compounds combined with ethionamide; type: cell-based; set-up: key to growth inhibition of M. tuberculosis H37Rv (R/I/S): R: Resistance, no effect of combinatorial drug application; I: intermediate; S: sensitive; conditions: for growth inhibitory effect of compound alone on M. tuberculosis H37Rv: without ethionamide; for growth of M. tuberculosis H37Rv in the presence of sub-inhibitory ethionamide concentrations: ethionamide 0.16 and 5 μg/ml, 0.5 to 40.5 μMol compound
EthR-VP16 = EthR-VP16 (Mycobacterium bovis, UniProt Q7TVI1); assay: cell-based; set-up: species or system M. bovis; conditions: 48 h, read-out: % EthR activity (w/o = 100%); ± std. dev. of the mean (n = 3)
EthR-VP16, sequence (Q7TVI1 whole entry, looked up): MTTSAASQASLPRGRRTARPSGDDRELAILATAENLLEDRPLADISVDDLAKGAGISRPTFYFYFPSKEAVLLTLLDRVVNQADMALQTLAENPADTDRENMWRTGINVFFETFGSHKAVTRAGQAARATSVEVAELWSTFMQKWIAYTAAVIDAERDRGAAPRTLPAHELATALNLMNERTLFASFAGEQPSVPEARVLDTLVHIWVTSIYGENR

[3] = Example compound 0.5 μM + ethionamide 0.16 μg/ml
[4] = Example compound 0.5 μM + ethionamide 0.31 μg/ml
[5] = Example compound 0.5 μM + ethionamide 0.625 μg/ml
[6] = Example compound 0.5 μM + ethionamide 1.25 μg/ml
[7] = Example compound 0.5 μM + ethionamide 2.5 μg/ml
[8] = Example compound 0.5 μM + ethionamide 5 μg/ml
[9] = Example compound 0.5 μM, ethionamide 0 μg/ml
[10] = Example compound 1.5 μM + ethionamide 0.16 μg/ml
[11] = Example compound 1.5 μM + ethionamide 0.31 μg/ml
[12] = Example compound 1.5 μM + ethionamide 0.625 μg/ml
[13] = Example compound 1.5 μM + ethionamide 1.25 μg/ml
[14] = Example compound 1.5 μM + ethionamide 2.5 μg/ml
[15] = Example compound 1.5 μM + ethionamide 5 μg/ml
[16] = Example compound 1.5 μM, ethionamide 0 μg/ml
[17] = Example compound 4.5 μM + ethionamide 0.16 μg/ml
[18] = Example compound 4.5 μM + ethionamide 0.31 μg/ml
[19] = Example compound 4.5 μM + ethionamide 0.625 μg/ml
[20] = Example compound 4.5 μM + ethionamide 1.25 μg/ml
[21] = Example compound 4.5 μM + ethionamide 2.5 μg/ml
[22] = Example compound 4.5 μM + ethionamide 5 μg/ml
[23] = Example compound 4.5 μM, ethionamide 0 μg/ml
[24] = Example compound 13.5 μM + ethionamide 0.16 μg/ml
[25] = Example compound 13.5 μM + ethionamide 0.31 μg/ml
[26] = Example compound 13.5 μM + ethionamide 0.625 μg/ml
[27] = Example compound 13.5 μM + ethionamide 1.25 μg/ml
[28] = Example compound 13.5 μM + ethionamide 2.5 μg/ml
[29] = Example compound 13.5 μM + ethionamide 5 μg/ml
[30] = Example compound 13.5 μM, ethionamide 0 μg/ml
[31] = Example compound 40.5 μM + ethionamide 0.16 μg/ml
[32] = Example compound 40.5 μM + ethionamide 0.31 μg/ml
[33] = Example compound 40.5 μM + ethionamide 0.625 μg/ml
[34] = Example compound 40.5 μM + ethionamide 1.25 μg/ml
[35] = Example compound 40.5 μM + ethionamide 2.5 μg/ml
[36] = Example compound 40.5 μM + ethionamide 5 μg/ml
[37] = Example compound 40.5 μM, ethionamide 0 μg/ml

Compound: CCc1cc(C(N)=S)ccn1 [Ethionamide, 2-ethylthioiso-nicotinamide, reference compound]
- cmax [1]: 2 µg/mL
- t1/2 [1]: 2 h
- growth inhibition of M. tuberculosis H37Rv (R/I/S) ([2]; ethionamide 0.16 μg/ml alone (Example compound 0 μM)): R
- growth inhibition of M. tuberculosis H37Rv (R/I/S) ([2]; ethionamide 0.31 μg/ml alone (Example compound 0 μM)): R
- growth inhibition of M. tuberculosis H37Rv (R/I/S) ([2]; ethionamide 0.625 μg/ml alone (Example compound 0 μM)): R
- growth inhibition of M. tuberculosis H37Rv (R/I/S) ([2]; ethionamide 1.25 μg/ml alone (Example compound 0 μM)): R
- growth inhibition of M. tuberculosis H37Rv (R/I/S) ([2]; ethionamide 2.5 μg/ml alone (Example compound 0 μM)): I
- growth inhibition of M. tuberculosis H37Rv (R/I/S) ([2]; ethionamide 5 μg/ml alone (Example compound 0 μM)): S

Compound: O=C(Cc1ccccc1)N1CCC(c2ccccc2)C1 (centres unmarked) [Example 17, 2-Phenyl-1-(3-phenylpyrrolidin-1-yl)ethan-1-one]
- remaining activity at 0.5 µM (EthR-VP16): 38.5 ± 8.47%
- remaining activity at 1.5 µM (EthR-VP16): 35.5 ± 7.81%
- remaining activity at 3 µM (EthR-VP16): 22.5 ± 4.94%
- remaining activity at 6 µM (EthR-VP16): 16.3 ± 3.58%
- remaining activity at 15 µM (EthR-VP16): 14.2 ± 3.13%
- remaining activity at 30 µM (EthR-VP16): 11.5 ± 8.52%
- remaining activity at 60 µM (EthR-VP16): 1.86 ± 0.4%
- remaining activity at 300 µM (EthR-VP16): 0.83 ± 0.18%
- growth inhibition of M. tuberculosis H37Rv (R/I/S) [2, 3]: R
- growth inhibition of M. tuberculosis H37Rv (R/I/S) [2, 4]: R
- growth inhibition of M. tuberculosis H37Rv (R/I/S) [2, 5]: R
- growth inhibition of M. tuberculosis H37Rv (R/I/S) [2, 6]: R
- growth inhibition of M. tuberculosis H37Rv (R/I/S) [2, 7]: I
- growth inhibition of M. tuberculosis H37Rv (R/I/S) [2, 8]: S
- growth inhibition of M. tuberculosis H37Rv (R/I/S) [2, 9]: R
- growth inhibition of M. tuberculosis H37Rv (R/I/S) [2, 10]: R
- growth inhibition of M. tuberculosis H37Rv (R/I/S) [2, 11]: R
- growth inhibition of M. tuberculosis H37Rv (R/I/S) [2, 12]: R
- growth inhibition of M. tuberculosis H37Rv (R/I/S) [2, 13]: I
- growth inhibition of M. tuberculosis H37Rv (R/I/S) [2, 14]: S
- growth inhibition of M. tuberculosis H37Rv (R/I/S) [2, 15]: S
- growth inhibition of M. tuberculosis H37Rv (R/I/S) [2, 16]: R
- growth inhibition of M. tuberculosis H37Rv (R/I/S) [2, 17]: R
- growth inhibition of M. tuberculosis H37Rv (R/I/S) [2, 18]: R
- growth inhibition of M. tuberculosis H37Rv (R/I/S) [2, 19]: R
- growth inhibition of M. tuberculosis H37Rv (R/I/S) [2, 20]: I
- growth inhibition of M. tuberculosis H37Rv (R/I/S) [2, 21]: S
- growth inhibition of M. tuberculosis H37Rv (R/I/S) [2, 22]: S
- growth inhibition of M. tuberculosis H37Rv (R/I/S) [2, 23]: R
- growth inhibition of M. tuberculosis H37Rv (R/I/S) [2, 24]: R
- growth inhibition of M. tuberculosis H37Rv (R/I/S) [2, 25]: R
- growth inhibition of M. tuberculosis H37Rv (R/I/S) [2, 26]: I
- growth inhibition of M. tuberculosis H37Rv (R/I/S) [2, 27]: I
- growth inhibition of M. tuberculosis H37Rv (R/I/S) [2, 28]: S
- growth inhibition of M. tuberculosis H37Rv (R/I/S) [2, 29]: S
- growth inhibition of M. tuberculosis H37Rv (R/I/S) [2, 30]: R
- growth inhibition of M. tuberculosis H37Rv (R/I/S) [2, 31]: R
- growth inhibition of M. tuberculosis H37Rv (R/I/S) [2, 32]: R
- growth inhibition of M. tuberculosis H37Rv (R/I/S) [2, 33]: S
- growth inhibition of M. tuberculosis H37Rv (R/I/S) [2, 34]: S
- growth inhibition of M. tuberculosis H37Rv (R/I/S) [2, 35]: S
- growth inhibition of M. tuberculosis H37Rv (R/I/S) [2, 36]: S
- growth inhibition of M. tuberculosis H37Rv (R/I/S) [2, 37]: R
- growth inhibitory effect of compound alone on M. tuberculosis H37Rv [2]: do not show any growth inhibitory effect
- growth of M. tuberculosis H37Rv in the presence of sub-inhibitory ethionamide concentrations [2]: dose-dependently inhibited

Compound: O=C(COc1ccc(F)cc1)N1CCC(c2ccccc2)C1 (centres unmarked) [Example 15, 2-(4-Fluorophenoxy)-1-(3-phenylpyrrolidin-1-yl)ethan-1-one]
- remaining activity at 0.5 µM (EthR-VP16): 10.3 ± 1.26%
- remaining activity at 1.5 µM (EthR-VP16): 10.3 ± 0.43%
- remaining activity at 3 µM (EthR-VP16): 7.81 ± 0.95%
- remaining activity at 6 µM (EthR-VP16): 6.01 ± 1.93%
- remaining activity at 15 µM (EthR-VP16): 3.21 ± 1.35%
- remaining activity at 30 µM (EthR-VP16): 0.77 ± 0.32%
- remaining activity at 60 µM (EthR-VP16): 0.86 ± 0.36%
- remaining activity at 300 µM (EthR-VP16): 0.89 ± 0.37%
- growth inhibition of M. tuberculosis H37Rv (R/I/S) [2, 3]: R
- growth inhibition of M. tuberculosis H37Rv (R/I/S) [2, 4]: R
- growth inhibition of M. tuberculosis H37Rv (R/I/S) [2, 5]: I
- growth inhibition of M. tuberculosis H37Rv (R/I/S) [2, 6]: S
- growth inhibition of M. tuberculosis H37Rv (R/I/S) [2, 7]: S
- growth inhibition of M. tuberculosis H37Rv (R/I/S) [2, 8]: S
- growth inhibition of M. tuberculosis H37Rv (R/I/S) [2, 9]: R
- growth inhibition of M. tuberculosis H37Rv (R/I/S) [2, 10]: R
- growth inhibition of M. tuberculosis H37Rv (R/I/S) [2, 11]: I
- growth inhibition of M. tuberculosis H37Rv (R/I/S) [2, 12]: I
- growth inhibition of M. tuberculosis H37Rv (R/I/S) [2, 13]: S
- growth inhibition of M. tuberculosis H37Rv (R/I/S) [2, 14]: S
- growth inhibition of M. tuberculosis H37Rv (R/I/S) [2, 15]: S
- growth inhibition of M. tuberculosis H37Rv (R/I/S) [2, 16]: R
- growth inhibition of M. tuberculosis H37Rv (R/I/S) [2, 17]: R
- growth inhibition of M. tuberculosis H37Rv (R/I/S) [2, 18]: I
- growth inhibition of M. tuberculosis H37Rv (R/I/S) [2, 19]: S
- growth inhibition of M. tuberculosis H37Rv (R/I/S) [2, 20]: S
- growth inhibition of M. tuberculosis H37Rv (R/I/S) [2, 21]: S
- growth inhibition of M. tuberculosis H37Rv (R/I/S) [2, 22]: S
- growth inhibition of M. tuberculosis H37Rv (R/I/S) [2, 23]: R
- growth inhibition of M. tuberculosis H37Rv (R/I/S) [2, 24]: R
- growth inhibition of M. tuberculosis H37Rv (R/I/S) [2, 25]: I
- growth inhibition of M. tuberculosis H37Rv (R/I/S) [2, 26]: S
- growth inhibition of M. tuberculosis H37Rv (R/I/S) [2, 27]: S
- growth inhibition of M. tuberculosis H37Rv (R/I/S) [2, 28]: S
- growth inhibition of M. tuberculosis H37Rv (R/I/S) [2, 29]: S
- growth inhibition of M. tuberculosis H37Rv (R/I/S) [2, 30]: R
- growth inhibition of M. tuberculosis H37Rv (R/I/S) [2, 31]: R
- growth inhibition of M. tuberculosis H37Rv (R/I/S) [2, 32]: I
- growth inhibition of M. tuberculosis H37Rv (R/I/S) [2, 33]: S
- growth inhibition of M. tuberculosis H37Rv (R/I/S) [2, 34]: S
- growth inhibition of M. tuberculosis H37Rv (R/I/S) [2, 35]: S
- growth inhibition of M. tuberculosis H37Rv (R/I/S) [2, 36]: S
- growth inhibition of M. tuberculosis H37Rv (R/I/S) [2, 37]: R
- growth inhibitory effect of compound alone on M. tuberculosis H37Rv [2]: do not show any growth inhibitory effect
- growth of M. tuberculosis H37Rv in the presence of sub-inhibitory ethionamide concentrations [2]: dose-dependently inhibited
